Test results: US9896445B2, “Heterocyclic inhibitors of ERK1 and ERK2 and their use in the treatment of cancer” (Asana Biosciences, LLC, priority 2015, dated 2018)

Columns and labels:
ERK2 = target: T1, ERK2 (Homo sapiens, UniProt P28482); test: ERK2 HTRF (biochemical) assay
T1 construct: purchased Jubilant Biosys
Procedure, shortened: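 Compounds were tested as half-log dilutions from 0.0005 to 10 uM in Tris pH 7.5/MgCl2 buffer, with a substrate mix of 1 uM biotin-MBP peptide and 24 uM ATP and an enzyme mix of 25 nM ERK2. Reaction ran 60 min at room temperature. Phospho-MBP was detected by HTRF (Eu-anti-phospho-MBP/SA-APC, 665/620 nm), and IC50 was fitted with a variable-slope sigmoidal curve.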

ERK1 = target: T2, ERK1 (Homo sapiens, UniProt P27361); test: ERK1 HTRF (biochemical) assay
T2 construct: purchased Jubilant Biosys
Description: ERK1 and ERK2 HTRF (Biochemical) Assays
These assays employed a homogeneous time resolved fluorescence (HTRF) technique. […] The plate was incubated at room temperature for 60 min with shaking. […] The IC50 values (half maximal inhibitory concentration values) were subsequently determined using a sigmoidal dose-response curve (variable slope) in GraphPad Prism® 5 software.

T1 sequence (P28482 whole entry): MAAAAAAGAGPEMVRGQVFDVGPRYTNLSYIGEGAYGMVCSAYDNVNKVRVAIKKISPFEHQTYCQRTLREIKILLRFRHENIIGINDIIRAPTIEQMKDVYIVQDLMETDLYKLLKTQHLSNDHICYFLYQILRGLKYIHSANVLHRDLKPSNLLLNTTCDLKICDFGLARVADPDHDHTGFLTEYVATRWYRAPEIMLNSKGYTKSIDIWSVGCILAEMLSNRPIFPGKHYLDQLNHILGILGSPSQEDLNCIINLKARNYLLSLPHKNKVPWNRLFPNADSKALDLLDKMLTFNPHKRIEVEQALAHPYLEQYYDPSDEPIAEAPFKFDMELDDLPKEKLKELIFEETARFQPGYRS
T2 sequence (P27361 whole entry): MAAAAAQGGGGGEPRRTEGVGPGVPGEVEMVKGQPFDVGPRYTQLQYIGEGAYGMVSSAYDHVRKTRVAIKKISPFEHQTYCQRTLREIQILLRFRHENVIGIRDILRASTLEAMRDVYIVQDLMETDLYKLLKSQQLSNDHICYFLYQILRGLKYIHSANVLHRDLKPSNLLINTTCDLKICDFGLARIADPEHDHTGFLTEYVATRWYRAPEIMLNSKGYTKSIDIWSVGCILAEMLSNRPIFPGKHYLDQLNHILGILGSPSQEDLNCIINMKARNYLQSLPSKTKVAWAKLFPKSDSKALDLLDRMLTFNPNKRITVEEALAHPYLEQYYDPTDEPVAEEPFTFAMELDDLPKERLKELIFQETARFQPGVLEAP

Row | SMILES | IC50 (ERK2; HTRF) [nM] | IC50 (ERK1; HTRF) [nM] | IC50 (ERK2; HTRF biochemical assay) [nM] | IC50 (ERK1; HTRF biochemical assay) [nM]
1 | Cc1cnc(NC(C)c2ccccc2)nc1-n1ccc(C(=O)NC(CO)c2ccccc2)c1 (stereo not drawn) [Compound 117, N-(2-hydroxy-1-phenylethyl)-1-(5-methyl-2-((1-phenylethyl)amino)pyrimidin-4-yl)-1H-pyrrole-3-carboxamide] | 50 to 100 | 100 to 500 | – | –
2 | O=C(Nc1cnn(-c2ccnc(Nc3ccccc3Cl)n2)c1)N[C@H](CO)c1ccccc1 [Compound 7, (S)-1-(1-(2-((2-chlorophenyl)amino)pyrimidin-4-yl)-1H-pyrazol-4-yl)-3-(2-hydroxy-1-phenylethyl)urea] | 50 to 100 | 50 to 100 | – | –
3 | Cc1cnc(NC2CCOCC2)nc1-n1cnc(C(=O)NC(CN)c2cccc(Cl)c2)c1 (racemic) [Compound 225, N-(2-Amino-1-(3-chlorophenyl)ethyl)-1-(5-methyl-2-((tetrahydro-2H-pyran-4-yl)amino)pyrimidin-4-yl)-1H-imidazole-4-carboxamide] | ≤ 50 | < 50 | – | –
4 | O=C(Nc1cnn(-c2ccnc(Nc3ccccc3)n2)c1)N[C@H](CO)c1cccc(Cl)c1 [Compound 12, (S)-1-(1-(3-chlorophenyl)-2-hydroxyethyl)-3-(1-(2-(phenyl-amino)pyrimidin-4-yl)-1H-pyrazol-4-yl)urea] | ≤ 50 | < 50 | – | –
5 | Cc1cnc(NC2CCOc3ccccc32)nc1-n1cnc(C(=O)N[C@H](CO)c2cccc(Cl)c2)c1 (stereo partly drawn) [Compound 247, N-((S)-1-(3-chlorophenyl)-2-hydroxyethyl)-1-(2-(chroman-4-ylamino)-5-methylpyrimidin-4-yl)-1H-imidazole-4-carboxamide] | ≤ 50 | < 50 | – | –
6 | Cc1cnc(NC2CCOCC2)nc1-n1cnc(C(=O)NC(C)(C)c2cccc(Cl)c2CO)c1 [Example 341, N-(2-(3-chloro-2-(hydroxymethyl)-phenyl)propan-2-yl)-1-(5-methyl-2-((tetrahydro-2H-pyran-4-yl)amino)-pyrimidin-4-yl)-1H-imidazole-4-carboxamide] | – | – | ≤ 50 | < 50
7 | Cc1cnc(Nc2ccc(F)cc2)nc1-n1cc(C(=O)NC(CO)c2ccccc2)nc1C (stereo not drawn) [Compound 153, 1-(2-((4-Fluorophenyl)amino)-5-methylpyrimidin-4-yl)-N-(2-hydroxy-1-phenylethyl)-2-methyl-1H-imidazole-4-carboxamide] | 100 to 500 | 100 to 500 | – | –
8 | CNC(=O)c1ccc(Nc2ncc(C)c(-n3ccc(C(=O)NC(CO)c4cccc(Cl)c4)c3)n2)cc1 (stereo not drawn) [Compound 196, N-(1-(3-chloro-phenyl)-2-hydroxy-ethyl)-1-(5-methyl-2-((4-(methyl-carbamoyl)phenyl)amino)pyrimidin-4-yl)-1H-pyrrole-3-carboxamide] | ≤ 50 | < 50 | – | –
9 | Cc1cnc(Nc2ccc(F)c(N3CCOCC3)c2)nc1-n1ccc(C(=O)NC(CO)c2cccc(Cl)c2)c1 (stereo not drawn) [Compound 175, N-(1-(3-chloro-phenyl)-2-hydroxy-ethyl)-1-(2-((4-fluoro-3-morpholinophenyl)amino)-5-methyl-pyrimidin-4-yl)-1H-pyrrole-3-carboxamide] | ≤ 50 | < 50 | – | –
10 | Cc1cnc(Nc2ccc(F)cc2Cl)nc1-n1ccc(C(=O)NC(CN)c2cccc(Cl)c2)c1 (stereo not drawn) [Compound 169, N-(2-amino-1-(3-chlorophenyl)ethyl)-1-(2-((2-chloro-4-fluorophenyl)amino)-5-methyl-pyrimidin-4-yl)-1H-pyrrole-3-carboxamide] | 50 to 100 | 50 to 100 | – | –
11 | CC(=O)NCC(NC(=O)c1ccn(-c2nc(Nc3ccc4c(c3)OC(F)(F)O4)ncc2C)c1)c1cccc(Cl)c1 (stereo not drawn) [Compound 158, N-(2-acetamido-1-(3-chlorophenyl)-ethyl)-1-(2-((2,2-difluorobenzo[d] [1,3]dioxol-5-yl)-amino)-5-methyl-pyrimidin-4-yl)-1H-pyrrole-3-carboxamide] | 50 to 100 | 100 to 500 | – | –
12 | Cc1cnc(N[C@H]2CCOC2)nc1-n1cnc(C(=O)NCc2ccc(Cl)c(Cl)c2)c1 [Example 314, (S)-N-(3,4-dichlorobenzyl)-1-(5-methyl-2-((tetrahydrofuran-3-yl)amino)pyrimidin-4-yl)-1H-imidazole-4-carboxamide] | – | – | ≤ 50 | < 50
13 | O=C(NC(CO)c1ccccc1)c1ccn(-c2ccnc(Nc3ccccc3)c2)c1 (stereo not drawn) [Compound 71, N-(2-hydroxy-1-phenylethyl)-1-(2-(phenylamino)pyridin-4-yl)-1H-pyrrole-3-carboxamide] | ≤ 50 | < 50 | – | –
14 | Cc1cnc(Nc2ccnn2C)nc1-n1cnc(C(=O)N[C@H](CO)c2cccc(Cl)c2)c1 [Example 277, (S)-N-(1-(3-chlorophenyl)-2-hydroxyethyl)-1-(5-methyl-2-((1-methyl-1H-pyrazol-5-yl)amino)-pyrimidin-4-yl)-1H-imidazole-4-carboxamide] | ≤ 50 | < 50 | – | –
15 | Cc1cnc(NC2CCOCC2)nc1-n1cnc(C(=O)NCc2nccs2)c1 [Example 281, 1-(5-methyl-2-((tetrahydro-2H-pyran-4-yl)amino)-pyrimidin-4-yl)-N-(thiazol-2-ylmethyl)-1H-imidazole-4-carboxamide] | ≤ 50 | < 50 | – | –
16 | CN(C(=O)Nc1cnn(-c2ccnc(NC3CC3)n2)c1)[C@H](CO)c1ccccc1 [Compound 18, (S)-3-(1-(2-(cyclopropylamino)pyrimidin-4-yl)-1H-pyrazol-4-yl)-1-(2-hydroxy-1-phenylethyl)-1-methylurea] | 100 to 500 | < 50 | – | –
17 | Cc1cnc(Nc2cc3c(cc2Cl)OCO3)nc1-n1ccc(C(=O)NC(CO)c2cccc(Cl)c2)c1 (stereo not drawn) [Compound 101, 1-(2-((6-chloro-benzo[d][1,3]dioxol-5-yl)amino)-5-methylpyrimidin-4-yl)-N-(1-(3-chlorophenyl)-2-hydroxyethyl)-1H-pyrrole-3-carboxamide] | ≤ 50 | < 50 | – | –
18 | O=C(N[C@H](CO)c1cccc(Cl)c1)c1ccn(-c2ccnc(Nc3ccc(F)cc3Cl)n2)c1 [Compound 112, (S)-1-(2-((2-chloro-4-fluorophenyl)-amino)pyrimidin-4-yl)-N-(1-(3-chlorophenyl)-2-hydroxyethyl)-1H-pyrrole-3-carboxamide] | ≤ 50 | < 50 | – | –
19 | Cc1cnc(Nc2ccc3c(c2)OC(C)(C)O3)nc1-n1ccc(C(=O)NC(CO)c2cccc(Cl)c2)c1 (stereo not drawn) [Compound 96, N-(1-(3-chloro-phenyl)-2-hydroxyethyl)-1-(2-((2,2-dimethyl-benzo[d][1,3]dioxol-5-yl)amino)-5-methylpyrimidin-4-yl)-1H-pyrrole-3-carboxamide] | ≤ 50 | < 50 | – | –

Now from value to compound:

Row | IC50 (ERK2; HTRF) [nM] | IC50 (ERK1; HTRF) [nM] | IC50 (ERK2; HTRF biochemical assay) [nM] | IC50 (ERK1; HTRF biochemical assay) [nM] | SMILES
20 | ≤ 50 | < 50 | – | – | O=C(NC(CO)c1ccccc1)c1ccn(-c2ccnc(Nc3ccc(F)cc3)c2)c1 (stereo not drawn) [Compound 84, 1-(2-((4-fluoro-phenyl)amino)pyridin-4-yl)-N-(2-hydroxy-1-phenyl-ethyl)-1H-pyrrole-3-carboxamide]
21 | ≤ 50 | < 50 | – | – | COc1cc(C(=O)N2CCOCC2)c(F)cc1Nc1ncc(C)c(-n2ccc(C(=O)NC(CO)c3cccc(Cl)c3)c2)n1 (stereo not drawn) [Compound 181, N-(1-(3-chlorophenyl)-2-hydroxyethyl)-1-(2-((5-fluoro-2-methoxy-4-(morpholine-4-carbonyl)phenyl)amino)-5-methyl-pyrimidin-4-yl)-1H-pyrrole-3-carboxamide]
22 | ≤ 50 | < 50 | – | – | Cc1cnc(NC2CCOCC2)nc1-n1cnc(C(=O)NC(CN)c2ccc(Cl)s2)c1 (single isomer, unassigned; enantiomer #2) [Example 291, N-(2-amino-1-(5-chlorothiophen-2-yl)ethyl)-1-(5-methyl-2-((tetrahydro-2H-pyran-4-yl)amino)-pyrimidin-4-yl)-1H-imidazole-4-carboxamide (enantiomer #2)]
23 | ≤ 50 | < 50 | – | – | Cc1cnc(NC2CCOC2)nc1-n1ccc(C(=O)NC(CO)c2ccccc2)c1 (stereo not drawn) [Compound 128, N-(2-hydroxy-1-phenylethyl)-1-(5-methyl-2-((tetrahydrofuran-3-yl)amino)pyrimidin-4-yl)-1H-pyrrole-3-carboxamide]
24 | ≤ 50 | < 50 | – | – | Cc1cnc(Nc2cccc3c2OC(F)(F)O3)nc1-n1ccc(C(=O)NC(CO)c2cccc(Cl)c2)c1 (stereo not drawn) [Compound 160, N-(1-(3-chloro-phenyl)-2-hydroxy-ethyl)-1-(2-((2,2-difluoro-benzo[d][1,3]dioxol-4-yl)amino)-5-methylpyrimidin-4-yl)-1H-pyrrole-3-carboxamide]
25 | ≤ 50 | < 50 | – | – | Cc1cnc(NC2CCOCC2)nc1-n1cnc(C(=O)NCc2cccc(Cl)n2)c1 [Example 307, N-((6-chloro-pyridin-2-yl)methyl)-1-(5-methyl-2-((tetrahydro-2H-pyran-4-yl)amino)-pyrimidin-4-yl)-1H-imidazole-4-carboxamide]
26 | ≤ 50 | < 50 | – | – | Cc1cnc(Nc2ccc(F)cc2)nc1-n1ccc(C(=O)N[C@H](CO)c2ccc(F)c(Cl)c2)c1 [Compound 125, (S)-N-(1-(3-chloro-4-fluorophenyl)-2-hydroxyethyl)-1-(2-((4-fluorophenyl)-amino)-5-methyl-pyrimidin-4-yl)-1H-pyrrole-3-carboxamide]
27 | ≤ 50 | < 50 | – | – | Cc1cnc(N[C@H]2CCOC2)nc1-n1ccc(C(=O)N[C@H](CO)c2cccc(Cl)c2)c1 [Compound 161, N-((S)-1-(3-chlorophenyl)-2-hydroxyethyl)-1-(5-methyl-2-(((S)-tetrahydrofuran-3-yl)amino)pyrimidin-4-yl)-1H-pyrrole-3-carboxamide]
